Experimental data: patent publication US11958812B2, “3, 5-disubstituted pyridine and 3, 5-disubstituted pyridazine derivatives and pharmaceutical use of same” (MITSUBISHI TANABE PHARMA CORPORATION, priority 2018, dated 2024)

Key:
[1] = system: bleomycin (BLM)-induced lung fibrosis model; test: Mouse bleomycin-induced lung fibrosis model: fibrosis markers in plasma, BALF and lung; format: in vivo, female C57BL/6J mouse; conditions: 30 mg/kg, bid, oral, 14 days
Protocol: [Consideration of Action of ATX Inhibitor on Mouse Bleomycin-Induced Lung Fibrosis Model]
The effectiveness of an ATX inhibitor (Example 5, hereinafter to be referred to as example 5 in the Figures) on bleomycin (BLM)-induced lung fibrosis model was evaluated using, as an index, variation of each fibrosis index marker in the plasma or BALF, or fibrosis related genes in the lung.
8-Week-old mice were grouped in the group constitution shown in Table 24 using a simulation method such that the body weight would become uniform before the previous day of bleomycin administration (SOP/STA/RA-0003). The mice were anesthetized with isoflurane, 0.5 mg/mL of bleomycin solution was intratracheally administered at 50 μL/head to produce a bleomycin-induced lung fibrosis model (1.25 U/kg). In the saline group, physiological saline was administered instead of bleomycin. The ATX inhibitor (Example 5) was orally administered two times per day from the day of bleomycin administration. In addition, the body weight was measured once per day from the day of grouping.
One equivalent of a mixture of 1N NaOH and 0.5% CMC solution (100 μL in total) relative to the ATX inhibitor (Example 5) was added, 10 zirconia beads (φ3 mm) were added, and they were pulverized using a mixer mill MM400 (frequency 28.01/min, pulverization time 10 min). 0.5% CMC was added to […] to give a suspension and the suspension was sonicated for 10 min. The administration dose volume was 10 mL/Kg and the administration dose amount was 30 mg/kg. Administration was performed twice per day and the initial administration was performed 30 min before BLM administration.
animal species: female C57BL/6J mouse, supply company: CHARLES RIVER LABORATORIES JAPAN, INC., number of animals used: 10 per group (age at arrival: 7 weeks old).
At 14 days from the bleomycin administration, plasma, BALF and lung tissue were collected. BALF was recovered and the concentration of LPA (18:2) in BALF (FIG. 6) was measured. After blood was collected from the abdominal vena cava, whole blood was anticoagulated using heparin and centrifuged to collect plasma. Then, the ATX activity (FIG. 5) and SP-D (FIG. 1) in the plasma were measured. Furthermore, the chest was opened and whole lung tissue was collected, and gene expression of each of Col1a1 (FIG. 2), CTGF (FIG. 3) and IL-6 (FIG. 4) in the lung was analyzed. For the gene expression analysis, mRNA was extracted from the lung tissue using TRIzol, reverse transcription was performed using a kit of Life technologies, and qPCR was performed using Tagman probe.
An organic solvent and LPA (17:0) solution as an internal standard substance were added to the collected BALF (200 μL), and the mixture was dried to solidness under reduced pressure at 35° C. […] The analysis sample was separated by reversed-phase column and LPA (18:2) was detected by the QTRAP6500 system (ABSciex). In addition, LPA (18:2) synthesis reference standard was added to PBS buffer used for recovery of BALF and compared with the analytical curve sample that underwent a similar pre-treatment, whereby the concentration of LPA (18:2) contained in BALF was calculated (FIG. 6).
The difference between the saline group and the BLM administration group and the difference between the BLM administration group and the compound administration group were analyzed by the Student's t-test wherein the significance level was 5% on both sides. […]

ATX activity in plasma [2] = biological target: T1, ATX activity in plasma (Rattus norvegicus, UniProt Q64610); test: Measurement of ATX activity in plasma (ex vivo), rat single administration test; set-up: species or system male Wistar rat
T1 construct: from tissue; host or cells: plasma of male Wistar rats after oral dosing
Protocol: [Measurement of ATX Activity in Plasma (Ex Vivo)]
A compound administration solution prepared by wet pulverization in a mixer mill (type: MM400) for 10 min and adjusting to a given concentration with 0.5% aqueous carboxymethylcellulose solution was orally administered to male Wistar rat (5-week-old when used) at 5 mL/kg. Blood samples were collected from the cervical vein over time at 8 to 24 hr after administration. The blood was heparin-treated using a micro blood collection tube Capiject (CJ-AL, TERUMO CORPORATION), and the plasma was separated by centrifugation (4° C., 12,000 rpm, for 2 min), and preserved at −80° C. The rats after blood sampling were euthanized by exsanguination from the caudal vena cava under isoflurane inhalation anesthesia. The measurement of ATX activity in plasma was evaluated using the concentration of choline in the plasma, which was liberated from lysophosphatidylcholine (substrate of ATX) by the lysophospholipase D activity of ATX, as an index. An equal amount of 2× assay buffer (200 mM Tris-HCl pH9.0, 10 mM MgCl2, 1 M NaCl, 0.1% Triton X-100) is added to plasma (12 μL) and reacted at 37° C. for 6 hr. The reaction mixture (10 μL) after reaction for 6 hr and 45 μL of reagent R^1 solution (100 mM Tris-HCl pH 8.0, 0.5 mM TOOS, 10 U/mL peroxidase, 0.01% Triton X-100) were added and blended and absorbance at 550-700 nm was measured and used as a prevalue. As the standard, choline chloride was used. 1 mM choline chloride was diluted with 2× assay buffer up to 7 steps in 2-fold serial dilution, R^1 solution was treated similarly and the absorbance was measured. Furthermore, 15 μL of reagent R^2 solution (100 mM Tris-HCl pH 8.0, 1 mM 4-aminoantipyrine, 10 U/mL choline oxidase, 0.01% Triton X-100) was added, and the mixture was reacted at room temperature for 10 min, and absorbance at 550-700 nm was measured. The choline concentration per reaction time was calculated from the difference between the absorbance after R^2 solution addition and prevalue measured before R^2 addition and used as ATX activity value. inhibitory activity (%)=100×{1−[choline concentration (μM) of test substance administration group/choline concentration (μM) of solvent control group]} <calculating formula>

ATX activity in plasma [3] = biological target: T2, ATX activity in plasma (Mus musculus, UniProt Q9R1E6); test: ATX activity in plasma in the mouse bleomycin-induced lung fibrosis model; format: in vivo, female C57BL/6J mouse; conditions: 30 mg/kg, bid, oral, 14 days; FIG. 5
T2 construct: from tissue; host or cells: plasma of female C57BL/6J mice (bleomycin-induced lung fibrosis model)
Protocol: A compound administration solution prepared by wet pulverization in a mixer mill (type: MM400) for 10 min and adjusting to a given concentration with 0.5% aqueous carboxymethylcellulose solution was orally administered to male Wistar rat (5-week-old when used) at 5 mL/kg. Blood samples were collected from the cervical vein over time at 8 to 24 hr after administration. The blood was heparin-treated using a micro blood collection tube Capiject (CJ-AL, TERUMO CORPORATION), and the plasma was separated by centrifugation (4° C., 12,000 rpm, for 2 min), and preserved at −80° C. […] The measurement of ATX activity in plasma was evaluated using the concentration of choline in the plasma, which was liberated from lysophosphatidylcholine (substrate of ATX) by the lysophospholipase D activity of ATX, as an index. […] The reaction mixture (10 μL) after reaction for 6 hr and 45 μL of reagent R^1 solution (100 mM Tris-HCl pH 8.0, 0.5 mM TOOS, 10 U/mL peroxidase, 0.01% Triton X-100) were added and blended and absorbance at 550-700 nm was measured and used as a prevalue. […] 1 mM choline chloride was diluted with 2× assay buffer up to 7 steps in 2-fold serial dilution, R^1 solution was treated similarly and the absorbance was measured. […]
At 14 days from the bleomycin administration, plasma, BALF and lung tissue were collected. BALF was recovered and the concentration of LPA (18:2) in BALF (FIG. 6) was measured. […]

Experimental Example 2 Rat single administration test (inhibitory activity (%) 8 hr after 1 mg/kg oral administration) (ATX activity in plasma [2]): 92%
Compound: COc1ccc(-c2cnnc(OC[C@H]3CC[C@H](C(F)(F)F)CC3)c2)nc1[C@H]1C[C@@H]1C(=O)O [Example 5, (1S,2S)-2-[3-methoxy-6-(6-{[trans-4-(trifluoromethyl)cyclohexyl]methoxy}pyridazin-4-yl)pyridin-2-yl]cyclopropanecarboxylic Acid]
SP-D in the plasma ([1]; FIG. 1): suppressed
production of LPA (C18:2) in BALF ([1]; FIG. 6): suppressive action
Col1a1 gene expression in the lung ([1]; mRNA in lung tissue, FIG. 2): expression suppressive action
CTGF gene expression in the lung ([1]; mRNA in lung tissue, FIG. 3): expression suppressive action
IL-6 gene expression in the lung ([1]; mRNA in lung tissue, FIG. 4): expression suppressive action
ATX activity in the plasma (ATX activity in plasma [3]): suppressed ATX activity in the plasma completely
